“And” between values parts separate entries of the source, which are not always exact repeats. Equal entries are not always repeated. ± gives the expanded uncertainty stated by the source.
Conditions: Crystal, Closed cell (Static) method

c1ccccc1 [benzene]
Conditions	vapor or sublimation pressure
233.2 K	0.09891 ± 0.002 kPa and 0.09902 ± 0.002 kPa and 0.09885 ± 0.002 kPa
235.7 K	0.1277 ± 0.0025 kPa
238.21 K	0.1641 ± 0.0027 kPa
240.7 K	0.2093 ± 0.0033 kPa and 0.2094 ± 0.0033 kPa and 0.2095 ± 0.0033 kPa
243.2 K	0.2655 ± 0.004 kPa and 0.2656 ± 0.004 kPa
245.68 K	0.3351 ± 0.0049 kPa and 0.3352 ± 0.0049 kPa and 0.335 ± 0.0049 kPa
248.18 K	0.4206 ± 0.0059 kPa and 0.4205 ± 0.0059 kPa
250.68 K	0.5253 ± 0.0073 kPa and 0.5257 ± 0.0073 kPa
253.17 K	0.6533 ± 0.0089 kPa and 0.6532 ± 0.0089 kPa and 0.6543 ± 0.0089 kPa
255.67 K	0.8095 ± 0.011 kPa and 0.8096 ± 0.011 kPa and 0.8092 ± 0.011 kPa
258.16 K	0.9997 ± 0.013 kPa and 0.9995 ± 0.013 kPa and 0.9994 ± 0.013 kPa
260.68 K	1.231 ± 0.016 kPa and 1.229 ± 0.016 kPa

Source: the NIST ThermoML archive (doi:10.1016/j.jct.2013.08.022)
